# Measured values as given in patent publication US20230110128A1, “USE OF ANTIBODY DRUG CONJUGATES COMPRISING TUBULIN DISRUPTING AGENTS TO TREAT SOLID TUMOR” (Seagen Inc., priority 2018, published 2023).
# Non-standard residues stand in square brackets, D forms with d. Residues, ends and D or L forms follow the SMILES beside them. *: point of attachment. Dolaproine = CO[C@@H]([C@@H]1CCCN1)[C@@H](C)C(=O)O; Dil = CC[C@H](C)[C@H](NC)[C@@H](CC(=O)O)OC; X1 = C[C@@H](N*)[C@@H](O)c1ccccc1; NMeV = CN[C@H](C(=O)O)C(C)C
# How the values were obtained:
# Format in all cases: cell-based
# [1] = test system: MCF7 breast cancer cells; assay: Western blot analysis of ER stress response in MCF7 cells; conditions: 16 hours
# Method: MCF7 breast cancer cells were treated with 100 nM MMAE for 16 hours and harvested RIPA buffer for western blot analysis.
# (§1) MCF7 cells were treated with MMAE or an MMAE-containing ADC (SGN-LIV1A) for 16 hours and harvested in […] for western bot analysis. […] Induction of ICD is also characterized by the secretion of ATP and HMGB1. Extracellular ATP serves as a strong chemotactic signal, promoting immune cell migration to the tumor site. Upon arrival, extracellular HMGB1 signals through various pro-inflammatory receptors (TLR2, TLR4, RAGE) to activate antigen-presenting cells, thereby promoting immune activity within the tumor.
# [2] = test system: MCF7 cells; assay: ATP secretion from MCF7 cells
# [3] = test system: MCF7 cells; assay: HMGB1 release from MCF7 cells
# Method: Induction of ICD is also characterized by the secretion of ATP and HMGB1. Extracellular ATP serves as a strong chemotactic signal, promoting immune cell migration to the tumor site. Upon arrival, extracellular HMGB1 signals through various pro-inflammatory receptors (TLR2, TLR4, RAGE) to activate antigen-presenting cells, thereby promoting immune activity within the tumor.
# as §1
# [4] = test system: HeLa cervical cancer cells; assay: Western blot analysis of ER stress in HeLa cells; conditions: 1000 nM or 100 nM, 16 hours
# Method: HeLa cervical cancer cells were treated with 1000 nM or 100 nM MMAE, Vincristine, or Paclitaxel for 16 hours and harvested for western blot analysis.
# [5] = test system: A2058, SK-MEL-5, SK-MEL-28, Calu-1, HT-1080, SK-MES-1 and BXPC3 cells; assay: ATP secretion in a panel of solid tumor cell lines; conditions: 7 cell lines, supernatant after 17 hours
# Method: (§2) Skin tumor lines A2058, SK-MEL-5 and SK-MEL-28, Calu-1 (lung), HT-1080 (fibrosarcoma), SK-MES-1 (lung), and BXPC3 (pancreas) cells were treated with MMAE, vincristine, and Paclitaxel. Supernatant was collected after 17 hours of treatment, and analyzed for ATP secretion.
# [6] = test system: A2058, SK-MEL-5, SK-MEL-28 (skin) cell lines; assay: ATP secretion in skin cell lines; conditions: A2058, SK-MEL-5, SK-MEL-28, after 17 hours
# Method: as §2
# [7] = test system: A2058 and SK-MEL-5 tumor cells co-cultured with macrophages; assay: Cytokine and chemokine production in macrophage co-culture with treated A2058 and SK-MEL-5 cells; conditions: A2058 and SK-MEL-5 co-culture supernatant 24 hours, ELISA, normalized to untreated
# Method: Supernatant from the co-culture of macrophages and dying A2058 and SK-MEL-5 tumor cells was harvested 24 hours later and assayed for levels of cytokine and chemokine production by ELISA and normalized to macrophages that were co-cultured with untreated tumor cells.
# [8] = test system: Calu-1, HT1080 and SK-MES-1 cells co-cultured with macrophages; assay: Macrophage costimulation/antigen presentation after co-culture with treated Calu-1, HT1080 and SK-MES-1 cells; conditions: normalized to untreated
# Method: Additional cell lines [Calu-1 (lung), HT1080 (fibrosarcoma) and SK-MES-1 […]] were tested for levels of antigen presentation after co culture with macrophages as above. Levels of costimulation (as measured by frequency of CD86-expressing macrophages, Calu-1) or antigen-presentation (as measured by frequency of MHCII-expressing macrophages, HT1080 and SK-MES-1) were quantified and normalized to macrophages that were co-cultured with untreated tumor cells. […] Calu-1, HT-1080, and SK-MES-1 cells were treated with an MMAE-containing ADC (anti-p97-MMAE), vincristine, or paclitaxel for 24 hours and analyzed for HMGB1 release by ELISA.
# [9] = test system: Hep3b, Huh7, and JHH7 cells; assay: ATP secretion from liver tumor lines; conditions: Huh7, JHH7, 24 hours
# Method: (§3) Liver tumor lines Hep3b, Huh7, and JHH7 cells were treated with MMAE, Tubulysin M, vincristine, and Paclitaxel for 24 hours and analyzed for ATP secretion. […] Cells were washed and harvested, and subsequently co-cultured with enriched macrophages prepared as above. Macrophages were harvested 4 days after co-culture and assayed for immune activation by flow cytometry. Levels of costimulation (as measured by CD86 expression, JHH7) and antigen-presentation (as measured by frequency of MHCII-expressing cells, Hep3b, Huh7, and JHH7) were quantified and normalized to macrophages that were co-cultured with […]. […] Supernatant from the co-culture of macrophages and dying liver tumor cells was harvested 24 hours later and assayed for levels of cytokine and chemokine production by ELISA and normalized to macrophages that were co-cultured with untreated tumor cells.
# [10] = test system: Hep3b, Huh7, and JHH7 cells co-cultured with macrophages; assay: Macrophage costimulation/antigen presentation after co-culture with treated liver tumor cells; conditions: macrophages harvested 4 days after co-culture; normalized to Paclitaxel-treated tumor cells
# Method: as §3
# [11] = test system: Hep3b, Huh7, and JHH7 cells co-cultured with macrophages; assay: Cytokine and chemokine production in macrophage co-culture with treated liver tumor cells; conditions: Huh7, JHH7 co-culture supernatant 24 hours, ELISA, normalized to untreated
# Method: as §3
# [12] = test system: U-266 multiple myeloma cells; assay: Western blot analysis of ER stress in U-266 cells; conditions: MMAE 492 nM, SGN-CD48A 10 ng/ml, 24 and 48 hours
# Method: U-266 multiple myeloma cells were treated with free MMAE (492 nM), an MMAE-containing ADC (SGN-CD48A, 10 ng/ml), and a non-binding MMAE-ADO (10 ng/ml) for 24 and 48 hours. Cells were harvested at each time point and whole cell lysates were prepared. Lysates for each sample were run on an SDS-Page and transferred onto a nitrocellulose membrane. Western blot analysis was performed using phospho-JNK Thr183/Tyr185 (pJNK), PARR, ATF4, […], phospho-IRE-1 Ser274 (pIRE-1). β-actin serves as a loading control. […] Importantly, the induction of ER stress by MMAE in U-266 cells was sufficient to elicit markers of ICD.
smiles,measurement,setting,value
"CC[C@H](C)[C@@H]([C@@H](CC(=O)N1CCC[C@H]1[C@H](OC)[C@@H](C)C(=O)N[C@H](C)[C@@H](O)c1ccccc1)OC)N(C)C(=O)[C@@H](NC(=O)[C@@H](NC)C(C)C)C(C)C [MMAE, monomethyl auristatin E] (H-[NMeV]V[Dil][Dolaproine]-X1)","Severe ER stress (JNK signaling by phosphorylated IRE1, expression of CHOP)",[1]; western blot,elicited by MMAE
same,"ER stress response (phosphorylation of IRE1 and eIF2a, cleavage of full-length ATF6)",[1]; western blot (100 nM MMAE elsewhere in the source),activated all 3 pathways of the ER stress response
same,Secretion of ATP,[2],increased secretion
same,Secretion of HMGB1,[3],increased secretion
same,ER stress responses (phosphorylation of IRE1),[4],activated ER stress responses
same,Severe ER stress response (phosphorylation of JNK),[4],more severe ER stress response that was sustained with decreasing doses
same,ATP secretion (cell lines responding),[5],ATP secretion in most of the cell lines assayed (6/7)
same,ATP secretion response compared with Paclitaxel,[5],more robust response than Paclitaxel in all cell lines assayed
same,ATP secretion (skin cell lines responding),[6],potent ATP secretion from all 3
same,Cytokine and chemokine production,[7],increase of the indicated cytokines and chemokines that was more robust than treatment with Paclitaxel
same,"Immune activation (CD86-expressing macrophages, Calu-1; MHCII-expressing macrophages, HT1080 and SK-MES-1)",[8],increase in immune activation in 3/3 tumor cell lines that was more robust than treatment with Paclitaxel
same,ATP secretion (cell lines responding),[9],potent ATP secretion from 3 of 3 cell lines evaluated
same,"Immune-activation (CD86 expression, JHH7; MHCII-expressing cells, Hep3b, Huh7, JHH7)",[10],increase in immune-activation in 3/3 tumor cell lines that was more robust than Paclitaxel
same,Cytokine and chemokine production,[11],increase of the indicated cytokines and chemokines that was more robust than treatment with Paclitaxel
same,"ER stress response (ATF4 expression, phosphorylation of JNK)",[12],further increased the ER stress response
